Experiments:
Conditions in all cases: 48 h
NOMO1 [1] = experiment: cell viability relative to DMSO control; higher = less cytotoxic
Outline: (§1)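 Leukemia cells (NOMO1 or SEM, 500 cells/well; P12-Ichikawa, 1000 cells/well) were seeded in 5 μl in 1536-well plates after at least four passages of adaptation to each medium. They received library compounds in DMSO by pin dosing, 11 threefold points from 47 μM to 0.79 nM. Luminescence with CellTiter-Glo One was read after 48 h at 37°C. Viability is stated per plate relative to DMSO wells, with cell-free wells as background.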

P12-Ichikawa [2] = experiment: as above
Outline: as §1

SEM cells [3] = experiment: as above
Outline: as §1

NOMO1 [4] = experiment: AUC of viability dose-response curve (% viability x log10 dose units); higher = less sensitive
Outline: (§2)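 Over 48 h at 37°C, leukemia cells in 1536-well plates (500 or 1000 cells/well), adapted to each medium, received library compounds in DMSO at 11 threefold doses from 47 μM to 0.79 nM. CellTiter-Glo One luminescence, normalised per plate to DMSO and cell-free wells, was fitted by a four-parameter log-logistic function of log10 dose. The area under the curve was then integrated by trapezoidal rule, after scaling curves above full viability and removing those that failed quality control.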

P12-Ichikawa [5] = experiment: as above
Outline: as §2

SEM cells [6] = experiment: as above
Outline: as §2

Oc1cccc(-c2nc(N3CCOCC3)c3oc4ncccc4c3n2)c1
cell viability [%]
Conditions | NOMO1 [1] | P12-Ichikawa [2] | SEM cells [3]
HPLM + 10% dialyzed FBS, 0.000781 µM | 121 | 118 | 108
HPLM + 10% dialyzed FBS, 0.00234 µM | 92.1 | 119 | 96.3
HPLM + 10% dialyzed FBS, 0.00702 µM | 117 | 123 | 102
HPLM + 10% dialyzed FBS, 0.0211 µM | 91.8 | 123 | 99.1
HPLM + 10% dialyzed FBS, 0.0632 µM | 92.3 | 117 | 92.6
HPLM + 10% dialyzed FBS, 0.19 µM | 107 | 121 | 80.7
HPLM + 10% dialyzed FBS, 0.569 µM | 115 | 131 | 54.8
HPLM + 10% dialyzed FBS, 1.71 µM | 102 | 118 | 54.5
HPLM + 10% dialyzed FBS, 5.12 µM | 129 | 116 | 61.5
HPLM + 10% dialyzed FBS, 15.4 µM | 96.4 | 79.2 | 57.3
HPLM + 10% dialyzed FBS, 46.1 µM | 103 | 73.3 | 5.23
RPMI 5 mM glucose + 10% FBS, 0.000781 µM | 109 | 122 | 102
RPMI 5 mM glucose + 10% FBS, 0.00234 µM | 113 | 114 | 102
RPMI 5 mM glucose + 10% FBS, 0.00702 µM | 116 | 132 | 120
RPMI 5 mM glucose + 10% FBS, 0.0211 µM | 123 | 129 | 106
RPMI 5 mM glucose + 10% FBS, 0.0632 µM | 112 | 110 | 93.3
RPMI 5 mM glucose + 10% FBS, 0.19 µM | 108 | 102 | 77.9
RPMI 5 mM glucose + 10% FBS, 0.569 µM | 104 | 80.8 | 58.4
RPMI 5 mM glucose + 10% FBS, 1.71 µM | 87.4 | 79 | 60.9
RPMI 5 mM glucose + 10% FBS, 5.12 µM | 128 | 108 | 8.23
RPMI 5 mM glucose + 10% FBS, 15.4 µM | 124 | 94.6 | 6.63
RPMI 5 mM glucose + 10% FBS, 46.1 µM | 122 | 75.3 | 4.34
RPMI 5 mM glucose + 10% dialyzed FBS, 0.000781 µM | 120 | 121 | –
RPMI 5 mM glucose + 10% dialyzed FBS, 0.00234 µM | 106 | 123 | –
RPMI 5 mM glucose + 10% dialyzed FBS, 0.00702 µM | 125 | 119 | –
RPMI 5 mM glucose + 10% dialyzed FBS, 0.0211 µM | 98.9 | 126 | –
RPMI 5 mM glucose + 10% dialyzed FBS, 0.0632 µM | 110 | 113 | –
RPMI 5 mM glucose + 10% dialyzed FBS, 0.19 µM | 102 | 110 | –
RPMI 5 mM glucose + 10% dialyzed FBS, 0.569 µM | 80.4 | 98.4 | –
RPMI 5 mM glucose + 10% dialyzed FBS, 1.71 µM | 77.7 | 81.5 | –
RPMI 5 mM glucose + 10% dialyzed FBS, 5.12 µM | 109 | 114 | –
RPMI 5 mM glucose + 10% dialyzed FBS, 15.4 µM | 106 | 108 | –
RPMI 5 mM glucose + 10% dialyzed FBS, 46.1 µM | 126 | 95.7 | –

AUC of viability dose-response curve
Conditions | NOMO1 [4] | P12-Ichikawa [5] | SEM cells [6]
HPLM + 10% dialyzed FBS | 464 | 449 | 337
RPMI 5 mM glucose + 10% FBS | 466 | 401 | 302
RPMI 5 mM glucose + 10% dialyzed FBS | 459 | 430 | 312

CCCCCCCCCC(=O)N[C@@H](Cc1c[nH]c2ccccc12)C(=O)N[C@H](CC(N)=O)C(=O)N[C@@H](CC(=O)O)C(=O)N[C@@H]1C(=O)NCC(=O)N[C@@H](CCCN)C(=O)N[C@@H](CC(=O)O)C(=O)N[C@H](C)C(=O)N[C@@H](CC(=O)O)C(=O)NCC(=O)N[C@H](CO)C(=O)N[C@@H]([C@@H](C)CC(=O)O)C(=O)N[C@@H](CC(=O)c2ccccc2N)C(=O)O[C@@H]1C
cell viability [%]
Conditions | NOMO1 [1] | P12-Ichikawa [2] | SEM cells [3]
HPLM + 10% dialyzed FBS, 0.000781 µM | 105 | 116 | 81.6
HPLM + 10% dialyzed FBS, 0.00234 µM | 118 | 122 | 101
HPLM + 10% dialyzed FBS, 0.00702 µM | 118 | 112 | 98.3
HPLM + 10% dialyzed FBS, 0.0211 µM | 132 | 123 | 108
HPLM + 10% dialyzed FBS, 0.0632 µM | 108 | 121 | 93.4
HPLM + 10% dialyzed FBS, 0.19 µM | 123 | 122 | 108
HPLM + 10% dialyzed FBS, 0.569 µM | 119 | 126 | 121
HPLM + 10% dialyzed FBS, 1.71 µM | 133 | 123 | 114
HPLM + 10% dialyzed FBS, 5.12 µM | 149 | 122 | 116
HPLM + 10% dialyzed FBS, 15.4 µM | 106 | 124 | 107
HPLM + 10% dialyzed FBS, 46.1 µM | 114 | 129 | 101
RPMI 5 mM glucose + 10% FBS, 0.000781 µM | 98.9 | 106 | 103
RPMI 5 mM glucose + 10% FBS, 0.00234 µM | 112 | 111 | 103
RPMI 5 mM glucose + 10% FBS, 0.00702 µM | 102 | 113 | 123
RPMI 5 mM glucose + 10% FBS, 0.0211 µM | 122 | 121 | 114
RPMI 5 mM glucose + 10% FBS, 0.0632 µM | 111 | 131 | 105
RPMI 5 mM glucose + 10% FBS, 0.19 µM | 104 | 127 | 120
RPMI 5 mM glucose + 10% FBS, 0.569 µM | 121 | 126 | 121
RPMI 5 mM glucose + 10% FBS, 1.71 µM | 124 | 129 | 102
RPMI 5 mM glucose + 10% FBS, 5.12 µM | 108 | 125 | 116
RPMI 5 mM glucose + 10% FBS, 15.4 µM | 117 | 125 | 119
RPMI 5 mM glucose + 10% FBS, 46.1 µM | 111 | 4.51 | 120
RPMI 5 mM glucose + 10% dialyzed FBS, 0.000781 µM | 103 | 106 | 102
RPMI 5 mM glucose + 10% dialyzed FBS, 0.00234 µM | 116 | 111 | 105
RPMI 5 mM glucose + 10% dialyzed FBS, 0.00702 µM | 103 | 110 | 94.8
RPMI 5 mM glucose + 10% dialyzed FBS, 0.0211 µM | 111 | 113 | 103
RPMI 5 mM glucose + 10% dialyzed FBS, 0.0632 µM | 125 | 133 | 123
RPMI 5 mM glucose + 10% dialyzed FBS, 0.19 µM | 106 | 116 | 104
RPMI 5 mM glucose + 10% dialyzed FBS, 0.569 µM | 141 | 117 | 117
RPMI 5 mM glucose + 10% dialyzed FBS, 1.71 µM | 131 | 126 | 103
RPMI 5 mM glucose + 10% dialyzed FBS, 5.12 µM | 102 | 121 | 109
RPMI 5 mM glucose + 10% dialyzed FBS, 15.4 µM | 118 | 131 | 105
RPMI 5 mM glucose + 10% dialyzed FBS, 46.1 µM | 80.3 | 115 | 102

AUC of viability dose-response curve
Conditions | NOMO1 [4] | P12-Ichikawa [5] | SEM cells [6]
HPLM + 10% dialyzed FBS | 459 | 459 | 458
RPMI 5 mM glucose + 10% FBS | 466 | 454 | 455
RPMI 5 mM glucose + 10% dialyzed FBS | 469 | 460 | 469
